According to the supplement of paper PMC11208160:

Experiment: recombinant UMI read abundance after kanamycin selection (control-corrected) (log10(CPM+1)); higher = more efficient recombination; extreme values may be limits of the assay; sequences stand for … in AGTGCAGAGAAAATCGGCCAGTTTTCTCTGCCTGCAGTCCGCATGCCGTGGGACCCCTTGGGTTCTAACCTGTTGCCTAGATTTATGCAGCGGACTGCCTTTCTCCCAAAGTGATAAACCGG…AGGTTGGTTTCACT; site = the 11-nt donor
Outline: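 After plating on IPTG (0.07 mM) plus kanamycin, or unselected, in two replicates, recombinant UMIs were PCR-amplified across the donor–target junction and sequenced. The cells were Escherichia coli co-electroporated with a UMI-tagged donor and donor-binding-loop pair library and a target plasmid with a fixed target and T7-inducible IS621 bridge recombinase. Values are log10(CPM+1), with CPM averaged over replicates and scaled by control-derived factors.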
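Note: IS621 bridge recombinase in Escherichia coli cells against a fixed T5 target plasmid.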

Sequence | recombinant UMI read abundance (log10)
CTAACATCATGGACCGGTTTTCCCGGTAATCCGTATTTGCT (site CTAACATCTAG) | 2.12
CTAACTGCATGGACCGGTTTTCCCGGTAATCCGTATTTGTC (site CTAACTGCTGA) | 2.12
CTAAGACCATGGACCGGTTTTCCCGGTAATCCGTATTTGCG (site CTAAGACCTCG) | 0.0114
CTACAACCATGGACCGGTTTTCCCGGTAATCCGTATTTGAT (site CTACAACCTAT) | 0
CTACCATCATGGACCGGTTTTCCCGGTAATCCGTATTTGAC (site CTACCATCTGT) | 2.39
CTACCATCATGGACCGGTTTTCCCGGTAATCCGTATTTGAC (site CTAGTATCTGT) | 0
CTACCGCCATGGACCGGTTTTCCCGGTAATCCGTATTTGAC (site CTACCGCCTGT) | 0.322
CTACCGCCATGGACCGGTTTTCCCGGTAATCCGTATTTGCG (site CTACCGCCTCG) | 0.268
CTACGAACATGGACCGGTTTTCCCGGTAATCCGTATTTGGG (site CTACGAACTCC) | 1.11
CTACGCCCATGGACCGGTTTTCCCGGTAATCCGTATTTGTG (site CTACGCCCTCA) | 0.232
CTACGTCCATGGACCGGTTTTCCCGGTAATCCGTATTTGAA (site CTACGTCCTTT) | 1.23
CTACTAACATGGACCGGTTTTCCCGGTAATCCGTATTTGCA (site CTACTAACTTA) | 1.4
CTACTAACATGGACCGGTTTTCCCGGTAATCCGTATTTGCA (site CTACTAACTTC) | 0.0167
CTACTAACATGGACCGGTTTTCCCGGTAATCCGTATTTGCA (site CTACTAACTTG) | 2.47
CTACTAACATGGACCGGTTTTCCCGGTAATCCGTATTTGCA (site CTACTAACTTT) | 1.47
CTACTAACATGGACCGGTTTTCCCGGTAATCCGTATTTGGT (site CTACTAACTAC) | 0.461
CTACTAACATGGACCGGTTTTCCCGGTAATCCGTATTTGGT (site CTACTAACTCC) | 0.0128
CTACTAACATGGACCGGTTTTCCCGGTAATCCGTATTTGGT (site CTACTAACTGC) | 0
CTACTAACATGGACCGGTTTTCCCGGTAATCCGTATTTGGT (site CTACTAACTTC) | 0.0138

Sequence | recombinant UMI read abundance (log10)
CTACTAGCATGGACCGGTTTTCCCGGTAATCCGTATTTGGA (site CTACTAACTTC) | 1.43
CTACTAGCATGGACCGGTTTTCCCGGTAATCCGTATTTGGA (site CTACTACCTTC) | 0.00939
CTACTAGCATGGACCGGTTTTCCCGGTAATCCGTATTTGGA (site CTACTAGCTTC) | 1.52
CTACTAGCATGGACCGGTTTTCCCGGTAATCCGTATTTGGA (site CTACTATCTTC) | 2.05
CTACTGACATGGACCGGTTTTCCCGGTAATCCGTATTTGGA (site CTACTAACTTC) | 1.76
CTACTGACATGGACCGGTTTTCCCGGTAATCCGTATTTGGA (site CTACTCACTTC) | 0.015
CTACTGACATGGACCGGTTTTCCCGGTAATCCGTATTTGGA (site CTACTGACTTC) | 0.475
CTACTGACATGGACCGGTTTTCCCGGTAATCCGTATTTGGA (site CTACTTACTTC) | 0.67
CTACTTACATGGACCGGTTTTCCCGGTAATCCGTATTTGGA (site CTACTAACTTC) | 0.0935
CTACTTACATGGACCGGTTTTCCCGGTAATCCGTATTTGGA (site CTACTCACTTC) | 0.209
CTACTTACATGGACCGGTTTTCCCGGTAATCCGTATTTGGA (site CTACTGACTTC) | 0.0111
CTACTTACATGGACCGGTTTTCCCGGTAATCCGTATTTGGA (site CTACTTACTTC) | 1.32
CTACTTTCATGGACCGGTTTTCCCGGTAATCCGTATTTGAC (site CTACTTTCTGT) | 1.94
CTACTTTCATGGACCGGTTTTCCCGGTAATCCGTATTTGAC (site CTAGTATCTGT) | 0
CTAGAATCATGGACCGGTTTTCCCGGTAATCCGTATTTGAC (site CTAGAATCTGT) | 2.83
CTAGAATCATGGACCGGTTTTCCCGGTAATCCGTATTTGAC (site CTAGCATCTGT) | 0
CTAGAATCATGGACCGGTTTTCCCGGTAATCCGTATTTGAC (site CTAGGATCTGT) | 1.28
CTAGAATCATGGACCGGTTTTCCCGGTAATCCGTATTTGAC (site CTAGTATCTGT) | 2
CTAGAGGCATGGACCGGTTTTCCCGGTAATCCGTATTTGTT (site CTAGAGGCTAA) | 1.82

Sequence | recombinant UMI read abundance (log10)
CTAGCAGCATGGACCGGTTTTCCCGGTAATCCGTATTTGCT (site CAAGCAGCTAG) | 0.38
CTAGCAGCATGGACCGGTTTTCCCGGTAATCCGTATTTGCT (site CCAGCAGCTAG) | 0.129
CTAGCAGCATGGACCGGTTTTCCCGGTAATCCGTATTTGCT (site CGAGCAGCTAG) | 0
CTAGCAGCATGGACCGGTTTTCCCGGTAATCCGTATTTGCT (site CTAGCAGCTAG) | 1.36
CTAGCGCCATGGACCGGTTTTCCCGGTAATCCGTATTTGTG (site CAAGCGCCTCA) | 0.0754
CTAGCGCCATGGACCGGTTTTCCCGGTAATCCGTATTTGTG (site CCAGCGCCTCA) | 0.0159
CTAGCGCCATGGACCGGTTTTCCCGGTAATCCGTATTTGTG (site CGAGCGCCTCA) | 0.00935
CTAGCGCCATGGACCGGTTTTCCCGGTAATCCGTATTTGTG (site CTAGCGCCTCA) | 0.446
CTAGGACCATGGACCGGTTTTCCCGGTAATCCGTATTTGGG (site CAAGGACCTCC) | 0.0215
CTAGGACCATGGACCGGTTTTCCCGGTAATCCGTATTTGGG (site CCAGGACCTCC) | 0.00872
CTAGGACCATGGACCGGTTTTCCCGGTAATCCGTATTTGGG (site CGAGGACCTCC) | 0
CTAGGACCATGGACCGGTTTTCCCGGTAATCCGTATTTGGG (site CTAGGACCTCC) | 0.0095
CTAGGACCATGGACCGGTTTTCCCGGTAATCCGTATTTGTG (site CTAGGACCTCA) | 0.00443
CTAGGATCATGGACCGGTTTTCCCGGTAATCCGTATTTGAC (site CTAGAATCTGT) | 2.89
CTAGGATCATGGACCGGTTTTCCCGGTAATCCGTATTTGAC (site CTAGCATCTGT) | 1.06
CTAGGATCATGGACCGGTTTTCCCGGTAATCCGTATTTGAC (site CTAGGATCTGT) | 1.9
CTAGGATCATGGACCGGTTTTCCCGGTAATCCGTATTTGAC (site CTAGTATCTGT) | 1.35
CTAGTACCATGGACCGGTTTTCCCGGTAATCCGTATTTGGC (site CTAGTACCTGC) | 0
CTAGTACCATGGACCGGTTTTCCCGGTAATCCGTATTTGGC (site CTAGTATCTGT) | 1.63
